Measurements: US20240041922A1, “METHODS AND COMPOSITIONS” (Monash University, priority 2020, published 2024)
“Also recorded” adds a separate entry of the source.

What was measured:
PAX7+ satellite cells = assay: Primary mouse myoblast mono- and co-cultures, PAX7+ satellite cell proliferation (EdU); type: cell-based; settings: 100 nM inhibitor; for effect on macrophage-stimulated satellite cell proliferation: MB+macrophage co-culture; for effect on NAMPT-stimulated satellite cell proliferation: with hrNAMPT
Method: Larvae: Labelling and detection was carried out as previously described (Nguyen, P. D. et al. Muscle stem cells undergo extensive clonal drift during tissue growth via Meox1-mediated induction of G2 cell-cycle arrest. […] Cell culture: Cells were incubated for 1 h in media supplemented with 10 μM EdU. […] Cells were processed using the Click-iTTM EdU Alexa FluroTM 647 imaging Kit (Thermo Fisher) following the manufacturer's protocol. For isolation of primary mouse myoblasts, limb skeletal muscle from E17.5 C57/BL6J mice were minced and digested in 0.125% Trypsin at 37° C. for 20 min. […] Myoblasts were again depleted for fibroblasts prior to co-culturing on gelatin-coated 48 well plates in DMEM+20% FBS+10% L929-conditioned medium. 100,000 myoblasts were plated with either 7,500 MafB/c-Maf deficient (Maf-DKO) macrophages (Aziz, A., Soucie, E., Sarrazin, […]. MafB/c-Maf deficiency enables self-renewal of differentiated functional macrophages. […] For drug treatments, the media were supplemented with appropriate doses and cultured for 24 h.

[1] = test system: wound-resident muscle stem cells; assay: Larval zebrafish needle stab muscle injury, wound site proliferation (EdU); type: in vivo; settings: needle stab injury, agent alone
Method: 4dpf larvae were anaesthetized in 0.01% tricaine (MS-222) (Sigma-Aldrich) in Ringer's solution. Mechanical injures were targeted either to the dorsal or ventral myotome above the cloaca when the larvae is oriented dorsal to the top, anterior to the left. Needle-stick injury was carried out as previously described (Gurevich, D. B. el al. Asymmetric division of clonal muscle stem cells co-ordinate muscle regeneration in vivo. Science 353 6295 aad9969 (2016)). Briefly, the myotome was subjected to a single 30-gauge needle puncture that generates an extensive injury with many damaged muscle fibres. For laser-induced injury, anaesthetised larvae were mounted in a thin layer of 1% low-melt agarose in Ringer's solution. Injuries were carried out using a UV-nitrogen laser pulsed through a coumarin 440 nm dye cell coupled to a Zeiss Axioplan microscope (MicroPoint Laser System, Andor Technology). On average a laser injury required pulses for 5-10 sec from laser beams focused through a 40× water immersion objective. For time-lapse analysis of the immediate response to injury, muscle fibre ablations were achieved using a SIM scanner (Olympus) at 790 nm and 200 msec dwell time at 100% laser power on an Olympus FVMPE-RS upright multi-photon microscope equipped with a 25×/1.05 water immersion objective. Injury-responding macrophages were tracked using the manual tracking plugin in Fiji.
Cell ablation was carried out as previously described (Pisharath, H. & Parsons, M. J. in Zebrafish 133-143 (Springer, 2009)) with minor modifications. Larvae at the appropriate stage were incubated in 5-10 mM metronidazole (Mtz) (Sigma-Aldrich) in Ringer's solution and daily refreshed until experimental end point. Drug treatments were carried out by incubating 4 dpf needle stick injured larvae in 5 and 10 μM cenicriviroc (CVC) (Med Chem Express) and 5 and 10 μM maraviroc (MVC) (Med Chem Express) in Ringer's solution immediately post injury and refreshed daily.
The effect of drug treatment on laser ablation muscle injury was assayed by treating larvae with 5 μM CVC for 2 h prior to injury and with larvae being maintained in the drug until experimental end point. […] Chemokine supplementation experiments were carried out in plasticware coated with 0.1% bovine serum albumin (BSA) overnight (rinsed in Ringer's solution prior to use) to minimise protein adsorption. Larvae were treated with 57 nM recombinant human visfatin (hrNAMPT(1)) (PeproTech), 57 nM recombinant murine CCL8/MCP-2 (mrCCL8) (PeproTech) and combinations with Mtz and CVC.
Larvae: Labelling and detection was carried out as previously described (Nguyen, P. D. et al. Muscle stem cells undergo extensive clonal drift during tissue growth via Meox1-mediated induction of G2 cell-cycle arrest. Cell Stem Cell 21, 107-119. e106 (2017))^55 with minor alteration. 6 dpf/2 dpi larvae were pulsed with 2.5 nM EdU (Thermo Fisher) for 1h and chased for a further 1.5 h prior to fixation. Cell culture: Cells were incubated for 1 h in media supplemented with 10 μM EdU. Following Edu pulse, C2C12 cells were fixed immediately, while primary mouse myoblast co-cultures were rinsed in PBS, replaced with media and incubated for a further 2 h following which the cells were fixed. Cells were processed using the Click-iT™ EdU Alexa Fluro™ 647 imaging Kit (Thermo Fisher) following the manufacturer's protocol.

C2C12 myoblasts = assay: C2C12 myoblast proliferation (EdU incorporation); type: cell-based, mouse; settings: for effect on NAMPT-induced myoblast proliferation: co-administration with NAMPT, 6 h
Method: Larvae: Labelling and detection was carried out as previously described (Nguyen, P. D. et al. Muscle stem cells undergo extensive clonal drift during tissue growth via Meox1-mediated induction of G2 cell-cycle arrest. […] Cell culture: Cells were incubated for 1 h in media supplemented with 10 μM EdU. […] Cells were processed using the Click-iTTM EdU Alexa FluroTM 647 imaging Kit (Thermo Fisher) following the manufacturer's protocol. The mouse muscle cell line […]. Serial passaging and differentiation of myogenic cells isolated from dystrophic mouse muscle. Nature 270, 725 (1977) were cultured in growth media (Dulbecco's Modified Eagle Medium (4.5 g/l D-Glucose, No L Glutamine, No Sodium Pyruvate (Gibco))+20% Fetal Bovine Solution-One Shot (Gibco)+1% Glut Max 100x (Gibco)). Cells were maintained at 37° C., 5% CO2. Cells at 70% confluence, passage 8 were extracted from T75 flasks with 0.025% Tryspin EDTA (Gibco), neutralised in growth media, spun at 180×g for 5 min to pellet cells. The cells were then resuspended in 10 ml of fresh growth media. 500 μl of cells were plated on a 8-well on cover glass II (Sarstedt) chamber slide at a density of 1×10^3 cells/ml. Cells were left 4 h at 37° C. to re-attach. For drug treatments, the media were supplemented with appropriate doses and cultured for 6 h.

[2] = test system: larval zebrafish skeletal muscle; assay: Larval zebrafish muscle regeneration by birefringence imaging; type: in vivo; settings: larvae soaked in drug after needle stab injury
Method: 4dpf larvae were anaesthetized in 0.01% tricaine (MS-222) (Sigma-Aldrich) in Ringer's solution. Mechanical injures were targeted either to the dorsal or ventral myotome above the cloaca when the larvae is oriented dorsal to the top, anterior to the left. Needle-stick injury was carried out as previously described (Gurevich, D. B. el al. Asymmetric division of clonal muscle stem cells co-ordinate muscle regeneration in vivo. Science 353 6295 aad9969 (2016)). Briefly, the myotome was subjected to a single 30-gauge needle puncture that generates an extensive injury with many damaged muscle fibres. […]
Fixed and Immunostained cell culture samples were imaged on a Leica DMi8 inverted widefield microscope with a 10× objective. Birefringence imaging was carried out as previously described (Berger, J., Sztal, T. & Currie, P. D. Quantification of birefringence readily measures the level of muscle damage in zebrafish. Biochemical and biophysical research communications 423, 785-788 (2012)), using a Leica DM IRB upright microscope integrated with the Abrio software (CRI Hinds instruments) using a 5× objective. Images were analysed using the software Fiji^52, whereby the mean grey value of the injury site birefringence is normalised to the region before and after it to calculate relative birefringence of the wound site. […]

Nampt = assay: NAD+/NADH levels after Nampt enzymatic inhibition; type: in vivo, zebrafish; settings: 10 μM

Molecule | effect on macrophage-stimulated satellite cell proliferation (PAX7+ satellite cells) | effect on NAMPT-stimulated satellite cell proliferation (PAX7+ satellite cells) | wound site muscle stem cell proliferation [1] | effect on NAMPT-induced myoblast proliferation (C2C12 myoblasts) | muscle regeneration (birefringence) [2] | larval NAD+/NADH levels (Nampt) | myoblast proliferation, factor added alone (C2C12 myoblasts; 6 h in growth media)
CCCCOCCOc1ccc(-c2ccc3c(c2)/C=C(/C(=O)Nc2ccc([S@@+]([O-])Cc4cncn4CCC)cc2)CCCN3CC(C)C)cc1 [CVC, cenicriviroc, reference compound] | a response that is inhibited; also recorded: reduced satellite cell proliferation in MB+MΦ culture conditions to levels evident in MB alone or MB+3T3 cultures | pro-proliferative response is abolished; also recorded: an effect that was abolished | proliferation is inhibited by CVC addition; also recorded: resulted in a proliferation deficit; also recorded: reduction in the proliferation of pax3a^+ myogenic stem cells; also recorded: reduction in the proliferation of par3a^+ myogenic stem cells | abolishes NAMPT's pro-proliferative response; also recorded: proliferative response was blocked | marked regeneration deficit; also recorded: highly significant regeneration deficit | – | –
N#CN=C(NCCCCCCOc1ccc(Cl)cc1)Nc1ccncc1 [GMX1778, reference compound] | – | – | had no effect on muscle stem cell proliferation in the injury zone; also recorded: did not alter muscle stem cell proliferation | does not impact its effect on myoblast proliferation; also recorded: did not affect the increased myoblast proliferation | – | severe reduction in larval NAD^+/NADH levels | no negative effect on the basal level of C2C12 proliferation
maraviroc [MVC, reference compound] | pro-proliferative response is abolished | an effect that was abolished | reduction in the proliferation of pax3a^+ myogenic stem cells; also recorded: reduction in the proliferation of par3a^+ myogenic stem cells | abolishes NAMPT's pro-proliferative response; also recorded: proliferative response was blocked | marked regeneration deficit; also recorded: highly significant regeneration deficit | – | –
